# In patent US20120064090A1, “THERAPEUTIC AGENT FOR CANCER HAVING REDUCED SENSITIVITY TO MOLECULAR TARGET DRUG AND PHARMACEUTICAL COMPOSITION FOR ENHANCING SENSITIVITY TO MOLECULAR TARGET DRUG” (KRINGLE PHARMA INC., priority 2009, published 2012):
# Tests used:
# H1975 [1] = assay: Effects of gefitinib or CL-387,785 on H1975, MTT growth rate; format: cell-based, human; conditions: 0.01 to 10 μM, 72 hours, FIG. 8
# Procedure: (§1) After 80% confluent H1975 was stripped and collected, the cells were seeded at 2×10^3 cells/well on 96-well plates and cultured for 24 hours. After that, gefitinib or CL-387,785 was added to each well so that the final concentration might be set to the seven levels of 0.01 to 10 μM, and then culture was continued for 72 hours. After that, 50 μl, of an MTT solution (2 mg/mL, manufactured by Sigma) was added and incubation was performed at 37° C. for 2 hours. The culture media were removed, and dark blue crystals were dissolved by adding 100 μL of DMSO. The absorbance was measured with a microplate reader MTP-120 (Corona Electric Co., Ltd.) at the detection and reference wavelengths of 550 nm and 630 nm, respectively. The growth rate was shown as a relative value based on an untreated control. Each experiment was performed in triplicate and repeated thrice independently.
# PC-9 [2] = assay: Effects of SU11274 on PC-9 with HGF-induced gefitinib-resistance; format: cell-based, human; conditions: HGF 20 ng/mL, gefitinib 0.3 μM, antibody 1 μg/mL, NK4 0.3 μM, SU11274 0.3 μM, 72 hours, FIG. 11
# Procedure: as §1, with “PC-9” for “After 80% confluent H1975”, “was” for “was stripped and collected, the cells were”, “After that, gefitinib or CL-387,785 was added to each well so that the final concentration might be set to the seven levels of 0.01 to 10 μM, and then culture was continued for 72 hours.” left out, “μL” for “μl,”
# H1975 [3] = assay: Effects of SU11274 on H1975 with HGF-induced CL-387,785-resistance; format: cell-based, human; conditions: CL-387,785 0.3 μM, HGF 50 ng/mL, antibody 2 μg/mL, NK4 0.3 μM, 72 hours, FIG. 12
# Procedure: H1975 was seeded at 2×10^3 cells/well on 96-well plates and cultured for 24 hours. […] The degree of cell growth was measured by the MTT method and the growth rate was calculated in the same manner as in the above (a).
# PC-9/mock = assay: PC-9 transfected with vector without the HGF gene, MTT growth rate; format: cell-based, human; conditions: gefitinib 0.3 μM, 72 hours, FIG. 4
# Procedure: (§2) An HGF expression vector was prepared according to the description in “Ueki T, Kaneda Y, Tsutsui H, et al. Hepatocyte growth factor gene therapy of liver cirrhosis in rats. Nature Medicine 5, 226-230 (1 Feb. 1999)”. On the day before transfection, PC-9 prepared in a culture medium without any antibiotics was seeded at 2×10^4 cells/400 μL on 24-well plates and then cultured for 24 hours. The HGF expression vector was transfected into the cells by use of Lipofectamine 2000 (1 μL) (PC-9/HGF). As a control, a vector without the HGF gene was similarly transfected into the cells (PC-9/mock). After 24-hour culture, the cells were washed with PBS. Then, 0.3 μM of gefitinib (final concentration), 2 μg/mL of the anti-human HGF neutralizing antibody (final concentration) and/or 2 μg/mL of the control IgG (final concentration) were added, or not added, and then culture was continued for 72 hours. After 72-hour culture, the degree of cell growth was measured by the MTT method and the growth rate was calculated in the same manner as in Example 1.
# PC-9/HGF = assay: PC-9 transfected with HGF expression vector, MTT growth rate; format: cell-based, human; conditions: gefitinib 0.3 μM, 72 hours, FIG. 4
# Procedure: as §2
# [4] = system: tumor formed of PC-9 and MRC-5 cells; assay: Xenograft tumor (PC-9 + MRC-5) transplanted into SCID mice; format: in vivo; conditions: PC-9 + MRC-5 s.c., days 4 to 16, gefitinib 25 mg/kg/day oral, antibody 5 mg/kg/day i.p., NK4 9 mg/kg/day i.p., FIG. 6
# Procedure: SCID mice (female, 5 weeks old) were purchased from CLEA Japan.
# 100 μL of a cell suspension containing PC-9 (5×10^6 cells) and MRC-5 (5×10^6 cells) was subcutaneously inoculated from the back skin of each SCID mouse. Four days later, mice bearing a tumor exceeding 4 mm in diameter were randomly divided into 6 groups (5 mice per group) as shown in Table 1.
# In gefitinib-treated groups (groups 4, 5 and 6 in Table 1), gefitinib (25 mg/kg/day) was orally administered once daily in the morning for 13 days from 4 days to 16 days after cell inoculation. In gefitinib-non-treated groups (groups 1, 2 and 3 in Table 1), a water containing 1% Tween80 was orally administered once daily in a similar manner to the above. In anti-HGF neutralizing antibody-treated groups (groups 2 and 5 in Table 1), the anti-HGF neutralizing antibody (5 mg/kg/day) was intraperitoneally administered once daily immediately after gefitinib administration for 13 days from 4 days to 16 days after cell inoculation. In NK4-treated groups (groups 3 and 6 in Table 1), NK4 (9 mg/kg/day) was intraperitoneally administered in divided portions twice a day in the morning immediately after gefitinib administration and in the evening for 13 days from 4 days to 16 days after cell inoculation.
# The width and length of tumor were measured every other day, and the tumor area (width×length) was calculated. […]
# HCC827 [5] = assay: Induction of gefitinib resistance by various growth factors; format: cell-based, human; conditions: growth factor 20 ng/mL, gefitinib 0.3 or 1 μM, 72 hours, FIG. 3(b)
# Procedure: (§3) In the same manner as in the above (a), PC-9 or HCC827 was seeded at 2×10^3 cells/well on 96-well plates, and after 24-hour culture, gefitinib was added to the wells so that the final concentration might be 0.3 or 1 μM. HGF, EGF, TGF-α or IGF-I was further added to give a final concentration of 20 ng/mL and then culture was continued for 72 hours. Wells without gefitinib and wells into which a culture medium was added instead of the growth factors were prepared for this experiment. After 72-hour culture, the degree of cell growth was measured by the MTT method and the growth rate was calculated in the same manner as in the above (a).
# PC-9 [6] = assay: as above; format: cell-based, human; conditions: growth factor 20 ng/mL, gefitinib 0.3 or 1 μM, 72 hours, FIG. 3(a)
# Procedure: as §3
# H1975 [7] = assay: Induction of CL-387,785 resistance by HGF; format: cell-based, human; conditions: HGF 50 ng/mL, CL-387,785 0.03 to 3 μM, 72 hours, FIG. 9
# Procedure: In the same manner as in the above (a), H1975 was seeded at 2×10^3 cells/well on 96-well plates. After 24-hour culture, CL-387,785 was added to the wells so that the final concentration might be set to the five levels of 0.03 to 3 μM. An HGF solution was further added to give a final concentration of 50 ng/mL, or was not added, and then culture was continued for 72 hours. The degree of cell growth was measured by the MTT method and the growth rate was calculated in the same manner as in the above (a).
# HCC827 [8] = assay: Induction of gefitinib resistance by HGF, MTT growth rate; format: cell-based, human; conditions: HGF 2 to 50 ng/mL, gefitinib 0.01 to 1 μM, 72-hour culture, FIG. 1(b)
# Procedure: (§4) PC-9 or HCC827 was seeded at 2×10^3 cells/well on 96-well plates and cultured for 24 hours. After that, gefitinib and HGF were added to the wells in combinations thereof at different concentrations. Specifically, gefitinib was added to each well so that the final concentration might be set to the five levels of 0.01 to 1 μM. Wells without gefitinib were also prepared for this experiment. An HGF solution was added to the wells so that the final concentration might be set to the five levels of 2 to 50 ng/mL. Wells without HGF were also prepared for this experiment. After 72-hour culture, 50 μL of an MTT solution (2 mg/mL, manufactured by Sigma) was added and incubation was performed at 37° C. for 2 hours. The culture media were removed, and dark blue crystals were dissolved by adding 100 μL of DMSO. The absorbance was measured with a microplate reader MTP-120 (Corona Electric Co., Ltd.) at the detection and reference wavelengths of 550 nm and 630 nm, respectively. The growth rate was shown as a relative value based on an untreated control. Each experiment was performed in triplicate and repeated thrice independently.
# PC-9 [9] = assay: as above; format: cell-based, human; conditions: HGF 2 to 50 ng/mL, gefitinib 0.01 to 1 μM, 72-hour culture, FIG. 1(a)
# Procedure: as §4
# PC-9 [10] = assay: Single culture of PC-9 with or without HGF, MTT growth rate; format: cell-based, human; conditions: PC-9 single culture; HGF 50 ng/mL; gefitinib 0.3 μM; 72 hours; FIG. 5
# Procedure: In the case of single culture of PC-9, PC-9 was seeded in each well of 24-well plates at 8×10^3 cells/700 μL and then cultured for 24 hours. After that, 50 ng/mL of HGF (final concentration) was added or not added, 0.3 μM of gefitinib (final concentration) was added or not added, 2 μg/mL of the control IgG (final concentration) or 2 μg/mL of the anti-human HGF neutralizing antibody (final concentration) was added or not added, and then culture was continued for 72 hours. After 72-hour culture, the degree of cell growth was measured by the MTT method and the growth rate was calculated in the same manner as in Example 1.
compound,measurement,setting,value
"CC#CC(=O)Nc1ccc2ncnc(Nc3cccc(Br)c3)c2c1 [CL-387,785]",sensitivity of H1975 to the drug (growth rate),H1975 [1],sensitive
"Cc1[nH]c(/C=C2\C(=O)Nc3ccc(S(=O)(=O)N(C)c4cccc(Cl)c4)cc32)c(C)c1C(=O)N1CCN(C)CC1 [SU11274, reference compound]",inhibition of HGF-induced hyposensitivity of PC-9 to gefitinib,PC-9 [2],significantly inhibited
same,"inhibition of HGF-induced hyposensitivity of H1975 to CL-387,785",H1975 [3],significantly inhibited
COc1cc2ncnc(Nc3ccc(F)c(Cl)c3)c2cc1OCCCN1CCOCC1 [gefitinib],sensitivity of cells to gefitinib (growth rate),PC-9/mock,sensitive
same,sensitivity of cells to gefitinib (growth rate),PC-9/HGF,less sensitive
same,sensitivity of H1975 to the drug (growth rate),H1975 [1],resistant
same,tumor volume / tumor growth over time,[4],"increase in tumor volume was inhibited, but no significant regression was observed"
"EGF (NSDSECPLSHDGYCLHDGVCMYIEALDKYACNCVVGYIGERCQYRDLKWWELR; Epidermal growth factor; UniProt P01133 971-1023, looked up) [growth factor purchased from Invitrogen]",induction of gefitinib resistance by growth factor (growth rate),HCC827 [5],slightly induced gefitinib resistance
same,induction of gefitinib resistance by growth factor (growth rate),PC-9 [6],slightly induced gefitinib resistance
HGF,"effect of HGF on sensitivity of H1975 to CL-387,785",H1975 [7],"reduced the sensitivity of H1975 to CL-387,785"
same,induction of gefitinib resistance (growth rate),HCC827 [8],induced gefitinib resistance of PC-9 and HCC827 in a concentration-dependent manner
same,induction of gefitinib resistance (growth rate),PC-9 [9],induced gefitinib resistance of PC-9 and HCC827 in a concentration-dependent manner
same,induction of gefitinib resistance by growth factor (growth rate),HCC827 [5],remarkable capability of inducing gefitinib resistance
same,induction of gefitinib resistance by growth factor (growth rate),PC-9 [6],remarkable capability of inducing gefitinib resistance
same,induction of gefitinib resistance (hyposensitivity) of PC-9,PC-9 [10],induced gefitinib resistance
IGF-I,induction of gefitinib resistance by growth factor (growth rate),HCC827 [5],slightly induced gefitinib resistance
same,induction of gefitinib resistance by growth factor (growth rate),PC-9 [6],slightly induced gefitinib resistance
TGF-α,induction of gefitinib resistance by growth factor (growth rate),HCC827 [5],slightly induced gefitinib resistance
same,induction of gefitinib resistance by growth factor (growth rate),PC-9 [6],slightly induced gefitinib resistance
